Reference: US20150272939A1, “Identification of Small Molecule Inhibitors of Jumonji AT-Rich Interactive Domain 1A (JARID1A) and 1B (JARID1B) Histone Demethylase” (Yale University, priority 2012, published 2015)
Where two headings read alike, the source gives them in different places.

Legend:
JARID1B = target: T1, JARID1B (Homo sapiens, UniProt Q9UGL1); assay: FLAG-JARID1B histone demethylase assay with AlphaScreen detection (HTS and dose response); format: biochemical; conditions: for inhibition at 20 µM / Inhibitory effect (percent): high-throughput screen, compound 20 μM; for inhibition at 20 µM: read-out: Inhibitory effect (percent); for Validation result of HTS active: effect of the compound in the JARID1B AlphaScreen demethylase assay / Assay Signal (percent): validation of HTS actives; for Validation result of HTS active: effect of the compound in the JARID1B AlphaScreen demethylase assay: total signal before subtraction of artifact signal; for Assay − Artifact Signal (percent): assay signal minus artifact signal; for Assay Signal (percent): effect of compound in JARID1B AlphaScreen assay;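 as to Assay Signal (percent): compound tested at 20 µM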;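 as to Assay − Artifact Signal (percent): compound tested at 20 µM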;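 as to all read-outs here: FLAG-tagged JARID1B at 4 nM acting on a biotinylated H3K4me3 peptide, demethylation read by AlphaScreen luminescence, with hits checked against bio-H3K4me2 without enzyme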
T1 construct: The FLAG tagged full length JARID1B enzyme was expressed in Sf21 insect cells using FLAG-JARID1B baculoviruses; FLAG (N); made in house; host or cells: Sf21 insect cells (baculovirus)
T1 sequence (Q9UGL1 whole entry): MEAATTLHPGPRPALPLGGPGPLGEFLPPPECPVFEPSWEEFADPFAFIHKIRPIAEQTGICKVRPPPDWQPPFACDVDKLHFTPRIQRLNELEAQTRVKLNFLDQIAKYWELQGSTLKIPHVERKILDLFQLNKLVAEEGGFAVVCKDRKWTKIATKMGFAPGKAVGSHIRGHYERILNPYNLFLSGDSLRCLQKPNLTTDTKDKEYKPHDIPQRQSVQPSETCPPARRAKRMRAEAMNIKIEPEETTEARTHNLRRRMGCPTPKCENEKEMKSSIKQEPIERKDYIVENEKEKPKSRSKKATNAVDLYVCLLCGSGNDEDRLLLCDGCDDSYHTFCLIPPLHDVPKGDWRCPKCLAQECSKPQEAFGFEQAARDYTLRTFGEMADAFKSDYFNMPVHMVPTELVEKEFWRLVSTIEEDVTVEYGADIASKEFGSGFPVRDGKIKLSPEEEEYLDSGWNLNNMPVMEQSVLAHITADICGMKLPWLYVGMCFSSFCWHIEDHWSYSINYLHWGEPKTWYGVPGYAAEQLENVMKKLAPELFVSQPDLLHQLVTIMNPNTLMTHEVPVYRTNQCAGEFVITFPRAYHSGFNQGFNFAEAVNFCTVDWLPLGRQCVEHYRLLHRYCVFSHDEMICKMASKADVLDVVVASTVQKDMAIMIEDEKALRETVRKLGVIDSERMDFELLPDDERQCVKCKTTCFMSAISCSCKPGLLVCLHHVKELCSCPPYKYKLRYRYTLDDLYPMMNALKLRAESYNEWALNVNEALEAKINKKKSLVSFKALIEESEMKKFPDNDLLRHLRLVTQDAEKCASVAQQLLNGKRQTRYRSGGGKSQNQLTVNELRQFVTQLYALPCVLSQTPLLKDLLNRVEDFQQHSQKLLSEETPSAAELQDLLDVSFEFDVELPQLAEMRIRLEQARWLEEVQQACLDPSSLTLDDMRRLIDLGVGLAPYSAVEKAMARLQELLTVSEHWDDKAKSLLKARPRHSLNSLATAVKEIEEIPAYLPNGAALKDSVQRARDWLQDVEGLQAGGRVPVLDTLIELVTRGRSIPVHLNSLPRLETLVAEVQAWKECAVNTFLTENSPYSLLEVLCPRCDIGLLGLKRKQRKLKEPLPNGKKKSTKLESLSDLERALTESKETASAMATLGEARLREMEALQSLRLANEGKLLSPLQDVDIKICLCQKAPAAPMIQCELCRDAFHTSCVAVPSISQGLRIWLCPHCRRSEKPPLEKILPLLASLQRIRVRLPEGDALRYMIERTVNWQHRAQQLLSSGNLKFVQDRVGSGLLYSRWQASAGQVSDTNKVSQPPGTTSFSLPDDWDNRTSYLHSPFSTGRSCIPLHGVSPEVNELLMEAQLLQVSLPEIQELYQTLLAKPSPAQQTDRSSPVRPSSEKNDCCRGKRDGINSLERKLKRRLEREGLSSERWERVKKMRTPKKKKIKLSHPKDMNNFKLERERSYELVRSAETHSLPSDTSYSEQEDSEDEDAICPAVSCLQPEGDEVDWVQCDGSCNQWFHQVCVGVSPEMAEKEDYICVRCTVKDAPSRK

[1] = AlphaScreen counterscreen against bio-H3K4me2 peptide in the absence of enzyme (artifact signal); conditions: for Artifact signal: effect of the compound when it is incubated with bio-H3K4me2 peptide: counterscreen, no enzyme; for Artifact Signal (percent): effect of the compound when incubated with bio-H3K4me2 peptide (counterscreen, no enzyme);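 as to all read-outs here: counterscreen run without enzyme against bio-H3K4me2 peptide to remove false positive hits from the JARID1 demethylase AlphaScreen screen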
[2] = standard demethylase conditions (10 μM α-KG, 50 μM Fe (II))

| Compound | inhibition at 20 µM (JARID1B; [2]) [%] | Validation result of HTS active: effect of the compound in the JARID1B AlphaScreen demethylase assay (JARID1B) | Artifact signal: effect of the compound when it is incubated with bio-H3K4me2 peptide [1] | Assay − Artifact Signal (percent) (JARID1B) [%] | Assay Signal (percent) (JARID1B) [%] | Artifact Signal (percent) [1] [%] | Inhibitory effect (percent) (JARID1B; [2]) [%] | inhibition at 20 µM (JARID1B; IDs marked *: additional hits under reaction condition with 1 mM α-KG) [%] |
| --- | --- | --- | --- | --- | --- | --- | --- | --- |
| O=C(O[C@@H]1Cc2c(O)cc(O)cc2O[C@@H]1c1cc(O)c(=O)c2c(O)c(O)cc([C@H]3Oc4cc(O)cc(O)c4C[C@H]3O)c2c1)c1cc(O)c(O)c(O)c1 [YU155347, THEAFLAVIN MONOGALLATES, reference compound] | 104 | 103.69 | 95.69 | – | – | – | – | – |
| O=c1c(O)c(-c2ccc(O)c(O)c2)oc2c(O)c(O)cc(O)c12 [YU155360, GOSSYPETIN, reference compound] | 103 | – | – | 18.96 | 100.77 | 81.81 | – | – |
| C#CCCCCCCCCCCCC(O)CC(O)COC(C)=O (centres unmarked) [YU155369, AVOCADYNE ACETATE, reference compound] | 45.1 | – | – | 45.03 | 44.82 | −0.21 | – | – |
| CC(C)=CCc1c2c(c3occ(-c4ccc(O)c(O)c4)c(=O)c3c1O)C=CC(C)(C)O2 [YU155407, POMIFERIN, reference compound] | – | 16.14 | 10.52 | – | – | – | 91.09 | – |
| O=c1c(-c2cc(O)c(O)c(O)c2)coc2cc(O)c(O)c(O)c12 [YU155411, IRIGENOL, reference compound] | 94.9 | – | – | 31.75 | 22.64 | −9.11 | – | – |
| O=c1c(O)cccc2cc(O)c(O)c(O)c12 [YU155440, PURPUROGALLIN, reference compound] | – | 13.64 | 6.39 | – | – | – | – | 42.5 |
| C[n+]1cc2c3c(ccc2c2ccc4cc5c(cc4c21)OCO5)OCO3.O=S(=O)([O-])O [YU155443, SANGUINARINE SULFATE, reference compound] | – | – | – | 17.36 | 5.51 | −11.85 | 62.80 | – |
| COc1cccc(O)c1O [YU155465, 3-METHOXYCATECHOL, reference compound] | 56.5 | – | – | 48.87 | 56.84 | 7.97 | – | – |
| COc1cccc2c1C(=O)c1c(O)c3c(c(O)c1C2=O)C[C@@](O)(C(C)=O)C[C@@H]3O[C@H]1C[C@H](N)[C@H](O)[C@H](C)O1 [YU155488, DAUNORUBICIN, reference compound] | – | – | – | 45.32 | 48.63 | 3.31 | – | – |
| COc1cc2cc3c4cc(OC)c(OC)cc4cc[n+]3c(C)c2cc1OC.[Cl-] [YU155528, CORALYNE CHLORIDE, reference compound] | 73.2 | −1.03 | −5.30 | – | – | – | – | – |
| O=C(O)c1cc(O)c(O)c(O)c1 [YU155562, GALLIC ACID, reference compound] | 63.9 | – | – | 51.44 | 59.88 | 8.44 | – | – |
| Oc1cc(O)c2c(c1)O[C@H](c1ccc(O)c(O)c1)[C@H](O)C2 [YU155618, EPICATECHIN, reference compound] | 66 | – | – | 57.78 | 64.74 | 6.96 | – | – |
| COc1c(O)cc2c(c1O)[C@@H]1O[C@H](CO)[C@@H](O)[C@H](O)[C@H]1OC2=O [YU155621, BERGENIN, reference compound] | 96.8 | – | – | 73.02 | 93.44 | 20.42 | – | – |
| Fc1ccccc1-c1nc2ncccc2o1 [YU172071] | 37.3 | 3.80 | −1.99 | – | – | – | – | – |
| Cc1c2c(=O)n(-c3nc4ccccc4s3)[nH]c2cc(=O)n1CCN1CCOCC1 [YU172087] | 56.4 | – | – | 21.21 | 14.44 | −6.77 | – | – |
| Cc1c2c(=O)n(-c3nc4ccccc4s3)[nH]c2cc(=O)n1Cc1ccc(C(=O)O)cc1 [YU172089] | 92.3 | – | – | 11.36 | 22.52 | 11.16 | – | – |
| Oc1c(C(Nc2ccccc2Cl)c2cccnc2)ccc2cccnc12 (centres unmarked) [YU172164] | 56 | – | – | 11.14 | 47.38 | 36.24 | – | – |
| Oc1c(C(Nc2ccc(Cl)cc2)c2cccnc2)ccc2cccnc12 (centres unmarked) [YU172165] | 42.3 | – | – | 14.24 | 43.01 | 28.76 | – | – |
| CCOC(=O)c1ccc(NC(c2cccnc2)c2ccc3cccnc3c2O)cc1 (centres unmarked) [YU172168] | 37.1 | 44.99 | 37.50 | – | – | – | – | – |
| Cc1cccc(NC(c2cccnc2)c2ccc3cccnc3c2O)c1 (centres unmarked) [YU172169] | 72.7 | – | – | 11.78 | 73.22 | 61.44 | – | – |
| Cc1cccc(NC(c2ccncc2)c2ccc3cccnc3c2O)c1 (centres unmarked) [YU172170] | 70 | – | – | 16.90 | 65.09 | 48.19 | – | – |
| COC(=O)c1cccc(NC(c2cccnc2)c2ccc3cccnc3c2O)c1 (centres unmarked) [YU172172] | 60.1 | 63.48 | 56.78 | – | – | – | – | – |
| Cc1ccc(NC(c2cccnc2)c2ccc3cccnc3c2O)cc1C (centres unmarked) [YU172173] | 40 | 44.79 | 37.31 | – | – | – | – | – |
